Measured values from patent US6362181B1, “Isoquinolones” (Warner-Lambert Company, priority 1996, dated 2002).
Values after ≈ are worked out from the molar mass of the structure shown. Where two headings read alike, the source gives them in different places.

Columns and labels:
[1] = Mammalian cell cytotoxicity, colony formation; assay type: cell-based; details: Chinese hamster
Experimental: Mammalian Cell Cytotoxicity
The cells were grown overnight and treated with drug for 3 hours at 37° C., at which time the compound containing media was replaced with fresh media. The cells were then incubated for 5 days and examined for colony formation.

[2] = biological target: relaxed plasmid pBR322; assay: DNA intercalation/binding assay; details: pBR322 with calf thymus topoisomerase I, 30 minutes at 37° C.; read-out: Drug Concentration causing 50% Intercalation of DNA
Experimental: Compounds of the present invention were evaluated for their ability to intercalate/bind to DNA, using the procedure described in Nucleic Acids Research, 1987;15(15):6713. Specifically, 0.2 μg of relaxed plasmid pBR322 (Lucent, Ltd., Leicester, UK) was treated with 2 U of calf thymus topoisomerase I (Gibco/BRL, Gaithersburg, Md.) in buffer I (10 mM Tris-HCl (Ph 7.5), 50 mM KCl, 5 mM MgCl2, 1 mM Na2EDTA, 15 μg/mL bovine serum albumin) in the presence or absence of test compounds. Reaction were incubated for 30 minutes at 37° C.; volumes were typically 30 μL. Reactions were terminated by the addition of sodium dodecylsulfate (SDS) to 1% and proteinase K to 0.5 mg/mL final concentrations. After an additional 30 minutes at 37° C., one-tenth volume of 10×concentrated loading buffer (0.3% bromophenol blue, 16% Ficoll, 10 mM Na2HPO4) was added, and samples were loaded onto horizontal 0.8% agarose gels prepared in TAE buffer. Electrophoresis was at 22 V for 14 hours. Gels were then stained by soaking for 1.5 hours in deionized water containing 0.2 μg/mL of ethidium bromide, followed by destaining in deionized water for an additional 1.5 hours. Gels were examined and photographed following exposure to UV light. The concentration of the drug which induced a 50% change in the DNA by intercalation is represented by an intercalation IC50 and is recorded in Table 4.

[3] = system: E. coli MC4100; assay: Antibacterial assay, standard microtitration, MIC; assay type: cell-based; details: Escherichia coli, Gram negative, read-out: Minimum Inhibitory Concentrations, E. coli MC4100
Experimental: (§1) The compounds of the present invention were tested against an assortment of gram negative and gram positive organisms using standard microtitration techniques (Cohen, et al., Antimicrob. Agents Chemother., 1985;28:766; Heifetz, et al. Antimicrob. Agents Chemother., 1974;6:124).

[4] = system: S. aureus 29213; assay: Antibacterial assay, standard microtitration, MIC; assay type: cell-based; details: Staphylococcus aureus, Gram positive, read-out: Minimum Inhibitory Concentrations, S. aureus 29213
Experimental: as §1

[5] = system: S. pyogenes C203; assay: Antibacterial assay, standard microtitration, MIC; assay type: cell-based; details: Streptococcus pyogenes, Gram positive, read-out: Minimum Inhibitory Concentrations, S. pyogenes C203
Experimental: as §1

[6] = system: B. subtilis RB1; assay: Antibacterial assay, standard microtitration, MIC; assay type: cell-based; details: Bacillus subtilis, Gram positive, read-out: Minimum Inhibitory Concentrations, B. subtilis RB1
Experimental: as §1

[7] = system: E. coli B90; assay: Antibacterial assay, standard microtitration, MIC; assay type: cell-based; details: Escherichia coli, Gram negative, read-out: Minimum Inhibitory Concentrations, E. coli B90
Experimental: as §1

[8] = system: E. coli To1C; assay: Antibacterial assay, standard microtitration, MIC; assay type: cell-based; details: Escherichia coli, TO1C, read-out: Minimum Inhibitory Concentrations, E. coli To1C
Experimental: as §1

[9] = biological target: T1, E. coli gyrase (Escherichia coli, UniProt P0AES4+P0AES6); assay: DNA gyrase supercoiling inhibition assay; assay type: biochemical
T1 construct: purchased Lucent, Ltd., Leicester, UK
T1 sequence (P0AES4 whole entry, one chain of several): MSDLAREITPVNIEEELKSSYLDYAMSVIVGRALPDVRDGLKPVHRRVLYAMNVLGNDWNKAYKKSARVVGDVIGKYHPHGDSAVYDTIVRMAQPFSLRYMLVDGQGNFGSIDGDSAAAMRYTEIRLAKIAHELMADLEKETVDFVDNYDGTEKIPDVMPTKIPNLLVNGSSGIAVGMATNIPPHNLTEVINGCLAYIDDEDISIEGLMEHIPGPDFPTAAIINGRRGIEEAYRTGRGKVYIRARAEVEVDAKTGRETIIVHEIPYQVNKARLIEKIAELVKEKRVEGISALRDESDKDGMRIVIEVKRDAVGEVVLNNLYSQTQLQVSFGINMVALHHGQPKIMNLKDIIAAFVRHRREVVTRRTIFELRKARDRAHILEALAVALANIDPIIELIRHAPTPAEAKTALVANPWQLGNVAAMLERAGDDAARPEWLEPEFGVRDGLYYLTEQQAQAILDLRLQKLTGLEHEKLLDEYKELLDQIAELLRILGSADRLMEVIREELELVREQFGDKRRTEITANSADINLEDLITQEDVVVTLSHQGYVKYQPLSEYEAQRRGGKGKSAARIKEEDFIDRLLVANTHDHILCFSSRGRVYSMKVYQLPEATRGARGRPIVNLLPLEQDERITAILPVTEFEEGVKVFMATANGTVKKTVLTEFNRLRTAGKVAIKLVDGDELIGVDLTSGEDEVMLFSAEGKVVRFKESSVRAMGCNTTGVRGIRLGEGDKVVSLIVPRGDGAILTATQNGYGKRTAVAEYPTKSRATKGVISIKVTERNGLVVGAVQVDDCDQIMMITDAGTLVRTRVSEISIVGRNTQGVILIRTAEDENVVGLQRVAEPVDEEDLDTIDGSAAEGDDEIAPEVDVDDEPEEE
Experimental: The effects of test agents on the activity of DNA gyrase was determined by the supercoiling inhibition assay, following reaction conditions recommended by the enzyme supplier (Lucent, Ltd., Leicester, UK), as follows. Reactions were performed in buffer G (35 mM Tris-HCL (pH 7.5), 24 mM KCl, 4 mM MgCl2, 2 mM DTT, 1.8 mM spermidine, 1 mM ATP, 0.1 mg/mL bovine serum albumin). 0.25 μg of relaxed plasmid pBR322 (Lucent, Ltd., Leicester, UK) was reacted with 1 U E. coli gyrase (Lucent, Ltd., Leicester, UK), in the absence or presence of drugs, for 30 minutes at 37° C. Reactions were stopped by the addition of SDS and proteinase K to respective final concentrations of 1% and 0.5 mg/mL. After an additional 30 minutes at 37° C., one-tenth volume of 10×loading buffer (0.3% bromophenol blue, 16% Ficoll, 10 mM Na2HPO4) was added, and reactions were loaded onto agarose gels and electrophoresed as described above for intercalation assays. The concentration of drug inhibiting 50% of the supercoiling activity of DNA gyrase is given as an IC50 and recorded in Table 2.

[10] = biological target: T2, E. coli topoisomerase IV (Escherichia coli, UniProt P0AFI2+P20083); assay: Topoisomerase IV k-DNA decatenation assay; assay type: biochemical
T2 construct: made in house; host or cells: E. coli overexpressing strains
T2 sequence (P0AFI2 whole entry): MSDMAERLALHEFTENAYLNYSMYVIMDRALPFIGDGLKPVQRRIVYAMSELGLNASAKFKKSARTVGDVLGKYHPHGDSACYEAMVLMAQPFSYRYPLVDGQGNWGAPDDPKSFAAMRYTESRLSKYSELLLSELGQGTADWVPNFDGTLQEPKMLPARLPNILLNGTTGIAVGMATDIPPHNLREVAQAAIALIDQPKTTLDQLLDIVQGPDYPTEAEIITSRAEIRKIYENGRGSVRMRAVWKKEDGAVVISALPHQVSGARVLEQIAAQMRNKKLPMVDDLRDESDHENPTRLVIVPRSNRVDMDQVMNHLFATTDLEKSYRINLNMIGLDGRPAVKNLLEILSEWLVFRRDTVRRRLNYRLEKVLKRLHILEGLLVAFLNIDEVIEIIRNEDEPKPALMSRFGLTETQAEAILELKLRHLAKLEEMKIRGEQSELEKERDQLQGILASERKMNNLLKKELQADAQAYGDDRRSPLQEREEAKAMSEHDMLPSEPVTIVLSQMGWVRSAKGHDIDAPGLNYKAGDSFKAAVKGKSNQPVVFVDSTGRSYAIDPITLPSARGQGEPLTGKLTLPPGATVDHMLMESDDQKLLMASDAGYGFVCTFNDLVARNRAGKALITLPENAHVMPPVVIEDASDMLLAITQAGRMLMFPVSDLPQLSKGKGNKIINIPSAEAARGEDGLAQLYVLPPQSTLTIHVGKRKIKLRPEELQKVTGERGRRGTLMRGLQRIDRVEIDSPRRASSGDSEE
T2 sequence (P20083 whole entry): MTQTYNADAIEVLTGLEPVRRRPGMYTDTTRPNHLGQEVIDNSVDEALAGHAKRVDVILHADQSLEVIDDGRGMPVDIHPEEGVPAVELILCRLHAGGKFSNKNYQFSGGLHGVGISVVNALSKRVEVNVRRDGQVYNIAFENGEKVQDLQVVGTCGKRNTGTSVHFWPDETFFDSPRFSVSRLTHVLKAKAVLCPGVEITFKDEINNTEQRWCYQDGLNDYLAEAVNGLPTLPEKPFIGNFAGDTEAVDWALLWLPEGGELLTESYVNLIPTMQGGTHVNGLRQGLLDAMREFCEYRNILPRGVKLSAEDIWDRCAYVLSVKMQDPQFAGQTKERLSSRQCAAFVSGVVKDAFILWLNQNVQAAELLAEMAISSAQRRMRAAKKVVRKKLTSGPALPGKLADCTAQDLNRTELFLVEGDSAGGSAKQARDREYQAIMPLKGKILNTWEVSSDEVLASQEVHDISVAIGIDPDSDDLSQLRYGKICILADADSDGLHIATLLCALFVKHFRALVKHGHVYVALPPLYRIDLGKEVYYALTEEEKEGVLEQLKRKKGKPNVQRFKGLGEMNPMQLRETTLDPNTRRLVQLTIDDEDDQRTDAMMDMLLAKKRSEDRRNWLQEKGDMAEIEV
Experimental: Topoisomerase IV was purified from E. coli overexpressing strains and the compounds were assayed according to literature conditions (Journal of Biological Chemistry, 1993;268(32):24481). The k-DNA decatenation assay was used. Briefly, reactions were performed in buffer R (40 mM Tris-HCl (pH 7.5), 6 mM MgCl2, 10 mM DTT, 100 mM potassium glutamate, 40 μM ATP, 50 μg/mL bovine serum albumin, 10 mM NaCl). 0.2 μg of kinetoplast DNA (k-DNA; TopoGen, Columbus, Ohio) was incubated with 5 ng of E. coli topoisomerase IV in the presence or absence of test compounds for 10 minutes at 37° C. Subsequently, one-tenth volume of 10×gel loading buffer (0.3% bromophenol blue, 16% Ficoll, 10 mM Na2HPO4) was added, and samples were loaded onto horizontal 0.8% agarose gels prepared with TBE buffer and containing 0.05 μg/mL of ethidium bromide. Electrophoresis was at 70 V for 2 to 4 hours. Gels were then examined by exposure to UV light. The concentration of drug inhibiting 50% of the decantenating activity of Topoisomerase IV is given as an IC50 and recorded in Table 2.

[11] = Chinese hamster cells, drug for 3 hours at 37° C., colony formation after 5 days, read-out: 50% Cytotoxic Conc. in CHO cells
[12] = supercoiling of relaxed pBR322, 30 minutes at 37° C., read-out: DNA Gyrase IC50
[13] = k-DNA decatenation, 10 minutes at 37° C., read-out: Top IV IC50

Compound | IC50 at 3 h [1, 11] | IC50 [2] | MIC [3] | MIC [4] | MIC [5] | MIC [6] | MIC [7] | MIC [8] | IC50 [9, 12] | IC50 at 3 h [1] | IC50 [10, 13] | IC50 [10] | IC50 at 3 h ([1]; drug for 3 hours at 37° C., colony formation after 5 days, read-out: 50% Cytotoxic Conc. in CHO cells) | IC50 [9]
CSc1ccc2c3c(cccc13)C(=O)N(O)C2=O [Example 16, 2-Hydroxy-6-methylthio-benzo[de]isoquinoline-1,3-dione] | > 250 µM | > 100 µM | > 64 µg/mL | 8 µg/mL (≈ 30.9 µM) | 64 µg/mL (≈ 247 µM) | 2 µg/mL (≈ 7.71 µM) | 1 µg/mL (≈ 3.86 µM) | 1 µg/mL (≈ 3.86 µM) | – | – | – | – | – | –
NC1CCN(c2ccc3c4c(cccc24)C(=O)N(O)C3=O)C1 (centres unmarked) [Example 62, 6-(3-Amino-pyrrolidin-1-yl)-2-hydroy-benzo[de]isoquinoline-1,3-dione] | 177 µM | – | > 64 µg/mL | > 64 µg/mL | 4 µg/mL (≈ 13.5 µM) | 64 µg/mL (≈ 215 µM) | 32 µg/mL (≈ 108 µM) | 8 µg/mL (≈ 26.9 µM) | 18 µM | – | – | – | – | –
CN(C)CCN1C(=O)c2cc([N+](=O)[O-])cc3cc([N+](=O)[O-])cc(c23)C1=O [Ref #1, 5,8-dinitro-2-(2-dimethylaminoethyl)-benzo[de]isoquinoline-1,3-dione, reference compound] | – | < 10 µM | 8 µg/mL (≈ 22.3 µM) | 4 µg/mL (≈ 11.2 µM) | 2 µg/mL (≈ 5.58 µM) | 2 µg/mL (≈ 5.58 µM) | 2 µg/mL (≈ 5.58 µM) | – | – | < 8 µM | – | – | – | –
COc1cc2c3c(cccc3c1)C(=O)N(O)C2=O [Example 13, 2-Hydroxy-5-methoxy-benzo[de]isoquinoline-1,3-dione] | > 250 µM | > 100 µM | 0.5 µg/mL (≈ 2.06 µM) | 8 µg/mL (≈ 32.9 µM) | > 64 µg/mL | 1 µg/mL (≈ 4.11 µM) | 0.13 µg/mL (≈ 0.534 µM) | – | 11 µM | – | 29 µM | – | – | –
Nc1cc2c3c(cccc3c1)C(=O)N(O)C2=O [Example 8, 5-Amino-2-hydroxy-benzo[de]isoquinoline-1,3-dione] | > 500 µM | > 100 µM | 8 µg/mL (≈ 35.1 µM) | 32 µg/mL (≈ 140 µM) | > 64 µg/mL | 8 µg/mL (≈ 35.1 µM) | 4 µg/mL (≈ 17.5 µM) | – | 7 µM | – | 65 µM | – | – | –
O=C1c2cccc3c(Br)ccc(c23)C(=O)N1O [Example 4, 6-Bromo-2-hydroxy-benzo[de]isoquinoline-1,3-dione] | > 250 µM | – | > 64 µg/mL | 16 µg/mL (≈ 54.8 µM) | > 64 µg/mL | 8 µg/mL (≈ 27.4 µM) | 8 µg/mL (≈ 27.4 µM) | – | – | – | – | – | – | –
CN1CCN(c2c(Br)cc3c4c(cccc24)C(=O)N(O)C3=O)CC1 [Example 50, 5-Bromo-2-hydroxy-6-(4-methylpiperazin-1-yl)-benzo[de]isoquinoline-1,3-dione] | 88 µM | – | 32 µg/mL (≈ 82 µM) | 8 µg/mL (≈ 20.5 µM) | 8 µg/mL (≈ 20.5 µM) | 4 µg/mL (≈ 10.3 µM) | 2 µg/mL (≈ 5.13 µM) | 2 µg/mL (≈ 5.13 µM) | 31 µM | – | 97 µM | – | – | –
COc1cc2c3c(cccc3c1Br)C(=O)N(O)C2=O [Example 32, 6-Bromo-2-hydroxy-5-methoxy-benzo[de]isoquinoline-1,3-dione] | > 250 µM | > 100 µM | > 64 µg/mL | 8 µg/mL (≈ 24.8 µM) | > 64 µg/mL | 4 µg/mL (≈ 12.4 µM) | 8 µg/mL (≈ 24.8 µM) | 4 µg/mL (≈ 12.4 µM) | – | – | – | – | – | –
O=C1c2cc([N+](=O)[O-])cc3cc([N+](=O)[O-])cc(c23)C(=O)N1O [Example 42, 2-Hydroxy-5,8-dinitro-benzo[de]isoquinoline-1,3-dione] | – | > 100 µM | 4 µg/mL (≈ 13.2 µM) | 8 µg/mL (≈ 26.4 µM) | 32 µg/mL (≈ 106 µM) | 16 µg/mL (≈ 52.8 µM) | 1 µg/mL (≈ 3.3 µM) | – | – | – | – | 20 µM | 160 µM | 20 µM
Nc1cc2c3c(cccc3c1Cl)C(=O)N(O)C2=O [Example 28, 5-Amino-6-chloro-2-hydroxy-benzo[de]isoquinoline-1,3-dione] | > 250 µM | > 100 µM | 16 µg/mL (≈ 60.9 µM) | 4 µg/mL (≈ 15.2 µM) | > 64 µg/mL | 4 µg/mL (≈ 15.2 µM) | 1 µg/mL (≈ 3.81 µM) | 1 µg/mL (≈ 3.81 µM) | 20 µM | – | 7 µM | – | – | –
